pIC50: −log10 of the molar value. Read-outs that look alike come from different tables or passages of the source.

One test concerns venous thrombosis. Description: Rat venous thrombosis model (stenosis of inferior vena cava with hypotonic saline infusion). It counts as in vivo. As to the method: Compound 22 was administered as a continuous intravenous infusion via the femoral vein commenced 15 minutes prior to the thrombotic challenge. Thrombus mass was assessed at 60 minutes following challenge. Results are expressed as the percentage of the vehicle mean.
Briefly, male Sprague-Dawley rats (300–400 g) were anesthetized using ketamine/xylazine I.M. A midline laparotomy was performed, and the vena cava was visualized and gently separated from the descending aorta using cotton swabs. Both iliolumbar veins were ligated with suture (3–0 silk). A loose ligature (3–0 silk) was placed around the vena cava distal to the renal veins. A 25G butterfly bent at a 90-degree angle and attached to a 5 cc syringe filled with 2.5 mL of hypotonic saline (0.225%) was inserted into the vena cava at the level of the iliolumbar veins and glued into place using VETBOND™. A 26G needle bent to a 90-degree angle was then tied tightly to the vena cava, using the loose ligature. An atraumatic clamp was placed on the vena cava proximal to the iliac bifurcation, and the hypotonic saline manually infused at a rate of 10 mL/minutes. The atraumatic clamp was removed, along with the 26G needle, creating a 26G stenosis. Organs were carefully replaced, and animals were kept normothermic until sacrifice. Animals were sacrificed by anesthetic overdose at 10 or 60 minutes post thrombus induction. Following sacrifice, the vena cava was isolated using hemostats, and the clot(s) was dissected out. Clots were removed, blotted on gauze, and then immediately weighed using an analytical balance.
Compounds under investigation along with vehicles and positive controls (heparin, enoxaparin) were administered intravenously via a catheter (PE-50 tubing) implanted in the jugular or femoral vein. In some studies, rats were administered a bolus of the test article (4 mL/kg) via the venous catheter immediately prior to initiation of intravenous infusion (4 mL/kg/h). The rats were subjected to the challenge 15 minutes post bolus/infusion initiation. All test article infusions continued to the end of the study period.
Administration of compound XLXI commenced 15 minutes prior to thrombotic challenge, with determination of thrombus mass at 60 minutes post challenge.

In a further test the test system is rat Factor XIa. Kind of test: Inhibition of rat Factor XIa compared with native human Factor XIa. It counts as biochemical. The note with it: rat Factor XIa vs native human Factor XIa.
The next test has as its target T1, native Factor XIa (Homo sapiens, UniProt P03951).
T1 construct: cleavage generates the same light chain segment as is found for human Factor XIa protein; purchased Haematological Associates FXIA01
Kind of test: Factor XIa enzyme inhibition assay (fluorogenic substrate pyroGlu-Pro-Arg-AMC). It counts as biochemical. How it is done:
Potential inhibitors of Factor XIa were evaluated using a modification of the above assay. […] This substrate had the p-nitroanaline group replaced with 7-methylaminocoumarin (AMC). […] Inhibitors were tested by serial dilution over an appropriate range to yield a dose response curve for determination of the inhibitors' IC50 values. The assay mixture was incubated for 30 minutes at 30° C., and the fluorescent yield was measured using a PE-Wallac Victor 2 Plate Reader. Dose response curves were fit to Equation 1 in which A is the maximum inhibition, B is the minimum inhibition, C is the IC50, and D is the Hill coefficient.
Potential inhibitors of Factor XIa were evaluated using the following assay. […] This substrate had the p-nitroanaline group replaced with 7-methylaminocoumarin (AMC).
Inhibitors were tested by serial dilution over an appropriate range to yield a dose response curve for determination of the inhibitors' IC50 value. The assay mixture was incubated for 30 minutes at 30° C., and the fluorescent yield measured using a PE-Wallac VICTOR2™ Plate Reader. Dose response curves were fit to equation 1 below in which A is the maximum inhibition, B is the minimum inhibition, C is the IC50, and D is the Hill coefficient.

Another test deals with Factor Xa (Homo sapiens, UniProt P00742). Description: Factor Xa enzyme inhibition assay (purified enzyme). It counts as biochemical.
For another test, the target named is thrombin (Homo sapiens, UniProt P00734). Kind of test: Thrombin enzyme inhibition assay (purified enzyme). It counts as biochemical.
Where [1] appears, read: Table 12, compounds of formula I (R^0 is 2-thiazole), read-out: FXIa IC50.
Setting [2] is: Table 12, read-out: Thrombin IC50.

T1 sequence (P03951 388-625 limits assumed): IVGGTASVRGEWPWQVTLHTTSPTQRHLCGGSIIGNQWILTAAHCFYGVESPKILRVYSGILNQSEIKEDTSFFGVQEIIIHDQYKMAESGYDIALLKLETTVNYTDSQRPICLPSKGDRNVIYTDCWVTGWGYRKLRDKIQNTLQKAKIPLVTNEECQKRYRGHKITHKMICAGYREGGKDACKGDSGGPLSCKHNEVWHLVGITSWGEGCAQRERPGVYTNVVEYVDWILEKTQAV
T1 sequence (P03951 19-387 partner limits assumed): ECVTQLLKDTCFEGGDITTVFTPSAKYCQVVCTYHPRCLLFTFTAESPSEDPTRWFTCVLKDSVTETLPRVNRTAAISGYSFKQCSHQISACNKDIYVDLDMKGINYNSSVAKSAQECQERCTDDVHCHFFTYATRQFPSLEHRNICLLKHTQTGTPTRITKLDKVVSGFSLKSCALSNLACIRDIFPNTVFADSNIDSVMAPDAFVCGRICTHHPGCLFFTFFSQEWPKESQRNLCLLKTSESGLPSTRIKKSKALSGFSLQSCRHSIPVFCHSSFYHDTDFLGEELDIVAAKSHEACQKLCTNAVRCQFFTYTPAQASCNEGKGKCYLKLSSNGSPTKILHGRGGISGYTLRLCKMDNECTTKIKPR
Sequence of Factor Xa (P00742 235-488 limits assumed): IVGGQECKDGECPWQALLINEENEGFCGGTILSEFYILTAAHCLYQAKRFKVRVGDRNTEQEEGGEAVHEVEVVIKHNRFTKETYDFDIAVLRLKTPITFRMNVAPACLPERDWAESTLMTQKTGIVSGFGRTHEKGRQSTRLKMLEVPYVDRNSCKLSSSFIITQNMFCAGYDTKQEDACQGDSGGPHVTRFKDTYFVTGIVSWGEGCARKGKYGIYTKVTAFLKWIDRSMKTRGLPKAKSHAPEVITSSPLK
Sequence of Factor Xa (P00742 41-179 partner limits assumed): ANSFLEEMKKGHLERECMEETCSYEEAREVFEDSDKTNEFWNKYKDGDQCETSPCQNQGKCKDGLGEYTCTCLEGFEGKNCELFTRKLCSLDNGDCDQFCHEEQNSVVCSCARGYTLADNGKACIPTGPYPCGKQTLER

On to `CC(C)[C@H](NC(=O)[C@H](Cc1cccnc1)NC(=O)N[C@H](C)c1ccc(Br)cc1)C(=O)N[C@@H](CCCNC(=N)N)C(=O)c1nccs1` [Compound 22], for which the “effect on thrombus formation” value in the test on venous thrombosis (continuous intravenous administration begun 15 minutes before thrombotic challenge, thrombus mass at 60 minutes post challenge) is reported as “suppressed the thrombus formation”. In the test on venous thrombosis (continuous intravenous infusion, thrombus mass at 60 minutes post challenge), the “total dose exposure at which efficacy was observed” value was 1.4 mg/kg. In addition, the “efficacy in rat model of venous thrombosis” value with venous thrombosis (intravenous) is on record as “statistically significant efficacy”. The “change in thrombus size at the higher dose” value in the test on venous thrombosis (total dose exposure 4.0 mg/kg compared with 1.4 mg/kg) was “no further decrease in thrombus size”. Besides, the “specificity for rat Factor XIa relative to native human Factor XIa (fold less)” value in the test on rat Factor XIa was 11 fold.
Turning to `CC(C)C(NC(=O)C(O)c1cccc(Cl)c1)C(=O)NC(CCCNC(=N)N)C(=O)c1nccs1` (stereo not shown), the negative-log IC50 (pIC50) at native Factor XIa (setting [1]) was 6.94; on Factor Xa (Table 12, read-out: FXa IC50) it was 5.63; at thrombin (setting [2]), 6.65.
Regarding `CCC(C)C(NC(=O)C(CC(C)C)NC(=O)NCc1ccc(Cl)c(Cl)c1)C(=O)NC(CCCNC(=N)N)C(=O)c1nccs1` (stereo not shown), the pIC50 against native Factor XIa was 7.11; against Factor Xa, 4.07; against thrombin, 5.58.
For `CC(C)CC(NC(=O)NCc1ccc(Cl)c(Cl)c1)C(=O)NC(C(=O)NC(CCCNC(=N)N)C(=O)c1nccs1)C(C)C` (stereo not shown), the pIC50 is 7.19 at native Factor XIa; 4.70 at Factor Xa (Table 12, read-out: FXa IC50); 6.21 at thrombin (setting [2]).
In the case of `COC(=O)c1cccc(CS(=O)(=O)NC(C(=O)NC(CC(C)C)C(=O)NC(CCCNC(=N)N)C(=O)c2nccs2)C2CCCCC2)c1` (stereo not shown), the pIC50 at native Factor XIa (setting [1]) is 8.30; at Factor Xa (Table 12, read-out: FXa IC50), 7.51; at thrombin (setting [2]), 7.70.
As for `CC(C)C(NC(=O)C(O)c1ccccc1)C(=O)NC(CCCNC(=N)N)C(=O)c1nccs1` (stereo not shown), the pIC50 on Factor Xa (Table 12, read-out: FXa IC50) is 5.93; on thrombin (setting [2]) it was 6.60.

By pIC50 is commonly meant −log10 of the IC50, conventionally taken in molar units.

Values taken from patent US7217794B2, “Compounds and methods for treatment of thrombosis” (Daiamed, Inc., priority 2003, dated 2007).
